Data on two compounds can be found in article PMC9964244, “Effects of Dimerization, Dendrimerization, and Chirality in p-BthTX-I Peptide Analogs on the Antibacterial Activity and Enzymatic Inhibition of the SARS-CoV-2 PL^pro Protein” (Pharmaceutics, 2023).

Series [1] deals with E. faecium ATCC 700221. Nature of the series: MIC/MBC, broth microdilution and subculture on CA-MH agar. It is filed as cell-based, Enterococcus faecium. The arrangement: key to Act (antibacterial activity): Bc, bactericidal; Bs, bacteriostatic. As to conditions: for MIC: broth microdilution; for MIC / MBC: triplicate, mode; for MBC: subculture on CA-MH agar, 37 °C, 24 h. Here is the method: (§1) Bacterial isolates from the American Type Culture Collection (ATCC) were obtained from the Collection of Reference Bacteria on Health Surveillance, Oswaldo Cruz Foundation (FIOCRUZ) after phenotypic and molecular quality control and were registered at SISGEN under the number ADB556B. The minimum inhibitory concentration (MIC) was determined as previously described by Santos-Filho et al., 2021 [17], using the broth microdilution method. The MIC was the lowest concentration that inhibited microbial growth. […] MBC was defined as the lowest peptide concentration with no visible growth on the plate. […] The assay was performed in triplicate, and the values represent the mode of the obtained results.
(§2) Thus, to assess the relevance of the antimicrobial effect of p-Bth analogs, their Minimum Inhibitory Concentration (MIC) and Minimum Bactericidal Concentration (MBC) were analyzed against relevant bacteria. The evaluated strains were the Gram-positives: S. aureus ATCC 25923, S. epidermidis ATCC 35984, E. faecalis ATCC 29212, and E. faecium ATCC […] (Table 1); and the Gram-negatives: K. pneumoniae ATCC 700603, E. coli ATCC 25922, A. baumannii ATCC 19606, and P. aeruginosa ATCC 27853 (Table 2).

For series [2], the system named is P. aeruginosa ATCC 27853. The series is described as above. As to conditions: triplicate, mode; for MIC: broth microdilution. It is filed as cell-based, Pseudomonas aeruginosa. As for the experimental part: as §1, §2
(In general: Dilution methods test growth across graded concentrations, often in twofold steps.)

The test system of series [3] is erythrocytes. The arrangement: method as in earlier work. As to conditions: at a concentration of 512 µg/mL; ref 17 (Santos-Filho et al., 2021); cited from earlier work.
Series [4] concerns A. baumannii ATCC 19606. Nature of the series: MIC/MBC, broth microdilution and subculture on CA-MH agar. It is filed as cell-based, Acinetobacter baumannii. As to conditions: triplicate, mode; for MIC: broth microdilution; for MBC: subculture on CA-MH agar, 37 °C, 24 h. As for the experimental part:
as §1, §2

In series [5] the test system is K. pneumoniae ATCC 700603. Described as above. It is filed as cell-based, Klebsiella pneumoniae. As to conditions: triplicate, mode; for MIC: broth microdilution. Here is the method:
as §1, §2

Series [6] has as its system SARS-CoV-2. To be noted: Vero cells; cited from earlier work. An excerpt:
In December 2019, the first case of viral infection with a new coronavirus was reported in China, which was later named severe acute respiratory syndrome coronavirus 2 (SARS-CoV-2), and the disease caused by this was named coronavirus-2019 or COVID-19 by the WHO. This disease has taken on great proportions, causing a pandemic scenario and great global concern. Even with the improvements in disease control, there is still a need for new, specific antiviral therapeutic options. As antimicrobial peptides also have antiviral action, the L-dimer, D-dimer and L-tetramer, in addition to ...

Series [7] is described as follows: Carboxyfluorescein leakage, vesicle permeabilization. To be noted: 80% POPE / 20% POPG vesicles; peptide 50 µM. As for the experimental part:
The permeabilization of lipid vesicles containing carboxyfluorescein was carried out using a spectrofluorometer model Fluorolog-3 FL3-122 from Horiba Jobin Yvon (Newark, NJ, USA) (dimers and tetramers) or in a spectrofluorometer model RF-1501 Shimadzu (Kyoto, Japan) (monomer). For RF-1501, the quantification of the fluorescence intensity was performed every 20 s. Two vesicle compositions were used: (1) 80% 1-palmitoyl-2-oleoyl-sn-glycero-3-phosphoethanolamine (POPE) and 20% 1-palmitoyl-2-oleoyl-sn-glycero- 3-phospho-(10-rac-glycerol) (POPG); and (2) 95% 1-palmitoyl-2-oleoyl-sn-glycero-3-phosphocholine (POPC) and 5% POPG. The percentage of leakage was obtained through the following equation:% release = (Fmeasured − Finitial)/(Ffinal − Finitial) × 100, where Ffinal is the average fluorescence value obtained after the addition of Triton, Finitial is the average of the initial values of the run before the addition of the peptide, and Fmeasured are the fluorescence values obtained at each point of the experiment.
Here, we evaluated two systems of membrane mimetics, including vesicles with a composition of 80% POPE and 20% POPG, and another with 95% POPC and 5% POPG. The first is widely used as a model of bacterial membranes, specifically of E. coli membrane. Membranes constituting POPC and POPG were used to mimic mammalian membranes due to the presence of choline-containing lipids in animal membranes.

The subject of series [8] is E. faecalis ATCC 29212. Briefly: MIC/MBC, broth microdilution and subculture on CA-MH agar. It is filed as cell-based. More on the design: key to Act (antibacterial activity): Bc, bactericidal; Bs, bacteriostatic. To be noted: for MIC: broth microdilution; for MIC / MBC: triplicate, mode; for MBC: subculture on CA-MH agar, 37 °C, 24 h. As for the experimental part: as §1, §2

Series [9] has as its system E. coli ATCC 25922. The description is as above. It is filed as cell-based. More on the design: key to Act (antibacterial activity): Bc, bactericidal; Bs, bacteriostatic. As to conditions: for MIC: broth microdilution; for MIC / MBC: triplicate, mode; for MBC: subculture on CA-MH agar, 37 °C, 24 h. Here is the method:
as §1, §2

Series [10] relates to S. epidermidis ATCC 35984. Described as above. Format: cell-based. More on the design: key to Act (antibacterial activity): Bc, bactericidal; Bs, bacteriostatic. To be noted: for MIC: broth microdilution; for MIC / MBC: triplicate, mode; for MBC: subculture on CA-MH agar, 37 °C, 24 h. Here is the method:
as §1, §2

The test system of series [11] is S. aureus ATCC 25923. The series is described as above. Format: cell-based, Staphylococcus aureus. To be noted: for MIC: broth microdilution; for MIC / MBC: triplicate, mode; for MBC: subculture on CA-MH agar, 37 °C, 24 h. The arrangement: key to Act (antibacterial activity): Bc, bactericidal; Bs, bacteriostatic. As for the experimental part: as §1, §2
Series [12] addresses T1, SARS-CoV-2 PL^pro (Severe acute respiratory syndrome coronavirus 2, UniProt P0DTD1).
T1 construct: made in house
As to conditions: PL^pro from SARS-CoV-2, ref 19 (Freire et al., 2021), cited from earlier work. Here is the method:
Table 3 PL^pro activity by peptide analogs of p-BThTX-I at the concentration of 10 μM and IC50 values. Representative concentration–response inhibition curves against PL^pro from SARS-CoV-2 are presented in the Supplementary Material (Figure S7). | column: Inhibition (%) at 10 µM; IC50 μM

Series [13] relates to erythrocytes. Briefly: Hemolysis assay. Format: cell-based. To be noted: at 512 µg/mL, 1 h, 37 °C, Triton X-100 1% positive control, duplicate. Here is the method: Peptide hemolytic activity was determined as previously described^15. Peptides were incubated with erythrocytes in the range from 512 μg/mL to 0.06 μg/mL for 1 h at 37 °C. Triton X-100 1% was used as a positive control for hemolysis. Assays were performed in duplicate. The Research Ethics Committee approved this project under the number 90291518.4.0000.5426.

Series [14] has as its target T1, SARS-CoV-2 PL^pro. Nature of the series: PL^pro enzymatic inhibition assay. It is filed as biochemical. As to conditions: PL^pro from SARS-CoV-2.
The mark [15] stands for this setting: MBC/MIC ratio >4 suggests bacteriostatic.
[16] abbreviates: subculture on CA-MH agar, 37 °C, 24 h.

Converted amounts (≈) assume the structure as drawn. “And” between values parts separate entries of the source, which are not always exact repeats. Equal entries are not always repeated. Where two headings read alike, the source gives them in different places. Bridge positions count the residues as written; N and C are the ends. Square brackets hold non-standard residues; d marks the D form. Ends that are not written are not given here. Peptide text beside a SMILES is read from it. I, II: the chains in the order shown. Where only a bound is given, the exact number is not on record here.

A word on the MIC: it is the least concentration at which growth counts as inhibited. Usually IC50 stands for the concentration that inhibits the measured activity by half. For the compound `CC(C)C[C@H](NC(=O)[C@H](Cc1c[nH]cn1)NC(=O)[C@H](Cc1ccc(O)cc1)NC(=O)[C@H](CCCNC(=N)N)NC(=O)[C@H](Cc1ccc(O)cc1)NC(=O)[C@H](CCCCN)NC(=O)[C@@H](N)CCCCN)C(=O)N[C@@H](CCCCN)C(=O)N1CCC[C@H]1C(=O)N[C@@H](Cc1ccccc1)C(=O)NCCCC[C@H](NC(=O)[C@H](Cc1ccccc1)NC(=O)[C@@H]1CCCN1C(=O)[C@H](CCCCN)NC(=O)[C@H](CC(C)C)NC(=O)[C@H](Cc1c[nH]cn1)NC(=O)[C@H](Cc1ccc(O)cc1)NC(=O)[C@H](CCCNC(=N)N)NC(=O)[C@H](Cc1ccc(O)cc1)NC(=O)[C@H](CCCCN)NC(=O)[C@@H](N)CCCCN)C(N)=O` [L-dimer, [des-Cys^11,Lys^12,Lys^13-(p-BthTX-I)2K]] (I: H-KKYRYHLKPFK-NH2 / II: H-KKYRYHLKPF; amide I:11-II:C; N-terminus assumed), the “Act (antibacterial activity)” value in series [1] (setting [15]) is “Bs”; in [8] (setting [15]), “Bc”; in series [9] (setting [15]) it was “Bc”; in series [10] (setting [15]) it was “Bc”; in series [11] (setting [15]) it was “Bc”. For the same compound, the minimal inhibitory concentration (MIC) was 16 μg/mL and 5 µM in series [1]; >512 μg/mL and >178 µM in series [2]; 89 µM and 256 μg/mL in series [4]; >128 μg/mL and >44 µM in [5]; 22 µM and 64 μg/mL in series [8]; 32 μg/mL and 11 µM in [9]. The MIC in [10] was 8 μg/mL and 2 µM; in [11], 32 μg/mL and 11 µM. Further, the MBC is >64 µg/mL in series [1]; >512 µg/mL in series [4]; 128 µg/mL (≈ 44.6 µM) in [8]; 64 µg/mL (≈ 22.3 µM) in series [9]; 16 µg/mL (≈ 5.58 µM) in [10]; 128 µg/mL (≈ 44.6 µM) in series [11]. In series [3], the hemolysis rate entry is listed as “below 5%”. The “percentage inhibition of SARS-CoV-2 infection” value in series [6] is 27%. The “carboxyfluorescein leakage, maximum percentage” value in series [7] stood at 15%. Also, in series [12] (peptide 10 µM), the “Inhibition (%) at 10 µM” value is 98.05 ± 1.62%. Besides, the half-maximal inhibitory concentration (IC50) in series [12] was 2.4 ± 0.1 µM.

Usually inhibition stands for the change of the read-out against control, counted positive when it falls. In the case of “I: [dK][dK][dY][dR][dY][dH][dL][dK][dP][dF]KK-NH2 / II: [dK][dK][dY][dR][dY][dH][dL][dK][dP][dF]K / III: [dK][dK][dY][dR][dY][dH][dL][dK][dP][dF] / IV: [dK][dK][dY][dR][dY][dH][dL][dK][dP][dF] (amide I:11-IV:C, I:12-II:C, II:11-III:C) [D-tetramer]”, the hemolysis in [13] worked out at 28%. In addition, the minimal inhibitory concentration (MIC) worked out at 2 µM in [1]; 5 µM in [2]; 5 µM in [4]; 5 µM in series [5]; 5 µM in series [8]; 5 µM in series [9]. The results for the MIC in [10] and in series [11] were 2 µM and 10 µM, respectively. Moreover, the MBC was 16 µg/mL in [1]; 64 µg/mL in series [2] (setting [16]); 32 µg/mL in series [4]; 32 µg/mL in series [5] (setting [16]); 32 µg/mL in [8]; >128 µg/mL in series [9]. For the same compound, the MBC amounted to 16 µg/mL in series [10] and 64 µg/mL in series [11]. This compound had an inhibition at 10 µM in series [14] (peptide 10 µM) of 94 ± 3%. For the same compound, in series [14] (two independent experiments), the midpoint of inhibition, the IC50, lay at 2.7 ± 0.5 µM.
